{
  "source": "patent US8362031B2",
  "about": "“Lonidamine analogues and treatment of polycystic kidney disease” (University of Kansas, priority 2004, dated 2013)",
  "key": {"rats": {"tested_on": "rats", "test": "Toxicology: organs sectioned and examined after dosing", "format": "in vivo"}, "HSP90": {"molecular_target": "T1, HSP90 (Mus musculus, UniProt P11499)", "T1 construct": "Wash four 150 mm plates of TM4 cells (sertoli cells) or ID-8 cells (ovarian cancer) once with PBS; endogenous in cells; host or cells: TM4 Sertoli cells (mouse) and ID8 ovarian cancer cells, cell lysate", "T1 sequence (P11499 whole entry)": "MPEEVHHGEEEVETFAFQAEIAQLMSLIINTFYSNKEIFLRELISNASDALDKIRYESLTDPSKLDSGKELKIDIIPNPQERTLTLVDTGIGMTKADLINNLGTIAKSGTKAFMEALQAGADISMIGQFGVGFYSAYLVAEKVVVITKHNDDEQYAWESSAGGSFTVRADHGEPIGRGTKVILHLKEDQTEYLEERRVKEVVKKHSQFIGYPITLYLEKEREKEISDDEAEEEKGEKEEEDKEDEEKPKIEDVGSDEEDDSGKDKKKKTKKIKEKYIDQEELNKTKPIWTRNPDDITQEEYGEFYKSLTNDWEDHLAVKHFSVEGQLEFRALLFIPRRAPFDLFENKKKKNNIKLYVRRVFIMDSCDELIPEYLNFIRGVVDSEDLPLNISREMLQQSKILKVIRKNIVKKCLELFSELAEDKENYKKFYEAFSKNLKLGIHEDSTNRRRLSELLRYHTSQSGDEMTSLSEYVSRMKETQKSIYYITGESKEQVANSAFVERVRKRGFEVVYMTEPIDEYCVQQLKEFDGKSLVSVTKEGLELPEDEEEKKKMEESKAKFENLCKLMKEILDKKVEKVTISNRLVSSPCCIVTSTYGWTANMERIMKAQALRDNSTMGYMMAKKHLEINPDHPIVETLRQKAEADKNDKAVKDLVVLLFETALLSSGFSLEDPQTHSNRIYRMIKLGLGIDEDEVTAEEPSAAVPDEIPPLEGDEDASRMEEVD", "test": "Affinity chromatography of cell lysate with biotinylated RC-MC-110, drug specific elution", "format": "binding", "conditions": "TM4 sertoli cell (mouse) and ID8 cell lysates, avidin-sepharose column", "protocol": "To analyze the binding of the compounds of the present invention, the following procedure is used.\n2. Wash four 150 mm plates of TM4 cells (sertoli cells) or ID-8 cells (ovarian cancer) once with PBS (20 mM concentration pH 7.5). Add enough volume to trypsinize cells. Aspirate and spin cells for 10 minutes at 4° C. at 250×g. Add enough Lysis buffer to the cells.\n5. Remove the cell lysate and apply the sample into a 2 ml avidin-sepharose (tetramer form) column (pre-equilibrated with 50 mM Tris-HCl/0.001% NP-40, pH 7.4) to remove native biotinylated compounds.\n6. Take 2.7 ml of pre-cleared cell lysate and incubate the sample with RC-MC-110.\nTube 1: 2.7 ml of pre-cleared lysate plus 150 μl of 1.2 mg/ml biotinylated RC-MC-110+150 μl of DMSO (maintaining the same amount of DMSO in both tubes).\nTube 2: 2.7 ml of pre-cleared lysate plus 150 μl of 1.2 mg/ml of biotinylated RC-MC-110 (RC-MC-150, see structure below), and add 150 μl of 12 mg/ml RC-MC-110 stock. Incubate the sample overnight at […] on a rocking platform (or gentle stirring) with gentle agitation.\n7. Load samples on an avidin-sepharose column pre-equilibrated with buffer (50 mM Tris-HCl pH 7.4, 0.1% NP-40=TD buffer). Wash column until background is reached.\n8. Wash column with 2.5 ml of 0.6 mg/ml of RC-MC-110 in TD buffer (stock 12 mg/ml) until peak elutes (if any) and stable background. Pool fractions."}, "[1]": {"tested_on": "ovarian (ID8), taxol-resistant ovarian (ID8), prostate (LNCaP and PC-3), kidney (293)", "test": "Growth of cancer cell lines in vitro", "format": "cell-based", "conditions": "all cell lines named", "protocol": "(§1) When RC-MC-110 is added to a variety of cancer cells: ovarian (ID8), taxol-resistant ovarian (ID8), prostate (LNCaP and PC-3), kidney (293)."}, "[2]": {"tested_on": "ID8 cells (ovarian cancer)", "test": "ID8 cell growth in vitro", "format": "cell-based", "protocol": "as §1"}, "fruitfly": {"tested_on": "fruitfly", "test": "Reproduction of fruitfly", "format": "in vivo, Drosophila (fruitfly)", "text": "Several known Hsp90 inhibitors are listed above. With regard to HSP90, RC-MC-110 likely a novel inhibitor of the N-terminal ATP binding site or a novel site on Hsp90. It should be noted that mutants of Hsp90 in Drosophila (fruitfly) produce sterile males and females. […] Genetics. 1999 March; 151(3):1065-79."}, "[3]": {"tested_on": "E15.5 kidneys from Pkd1+/+, +/−, and −/− mice", "test": "Metanephric organ culture, cAMP-driven cyst formation", "format": "cell-based, mouse", "protocol": "To determine whether gamendazole alters the cyst-forming process in response to cAMP, kidneys from Pkd1+/+, +/−, and −/− mice were placed in metanephric culture at E15.5 and treated with 100 uM 8-Br-cAMP with or without gamendazole (100 nM-10 uM) for 4 days.\nThe length of time that Gamendazole was able to block fluid secretion in embryonic kidneys using a washout technique was studied. Briefly, E15.5 kidneys were treated with cAMP alone or with cAMP plus 5 microM Gamendazole. 24 hrs later, culture medium was removed from the GMZ+cAMP-treated kidneys and was replaced with fresh medium containing cAMP only. […] This was evident by the reduced number and size of the tubule dilations on Day 4."}, "[4]": {"tested_on": "CFTR-mediated chloride transport", "test": "Forskolin-induced short-circuit current in ADPKD cell monolayers", "format": "cell-based, human", "protocol": "To determine if the ability of GMZ to inhibit cAMP-stimulated tubule expansion was due to inhibition of CFTR-mediated chloride transport, forskolin-induced short-circuit current was measured with cyst-lining epithelial cells derived from two human ADPKD (autosomal dominant PKD) kidneys. FSK is an adenylyl cyclase agonist, which increases the levels of intracellular cAMP. The cAMP then opens the CFTR chloride channel. […] The bars in FIG. 12G show the results for the three treatments. 1 microM gamendazole applied to the apical side of the cell monolayer was effective in inhibiting greater than 40 percent of the forskolin-stimulated transepithelial chloride transport."}, "[5]": {"tested_on": "PCNA (proliferating cell nuclear antigen)", "test": "Immunostaining of organ culture kidney sections", "format": "cell-based, mouse", "conditions": "not shown", "text": "Since GMZ affects Hsp90 client proteins involved in cell proliferation, it was hypothesized that GMZ could also be inhibiting cell proliferation in the metanephric organ cultures. To test this idea, organ culture sections were immunostained with an antibody to PCNA (proliferating cell nuclear antigen), a marker of cell proliferation."}, "[6]": {"conditions": "100 nM-10 uM for 4 days with 100 uM 8-Br-cAMP"}},
  "note": "Entries after “also recorded” stand apart in the source; their conditions may differ.",
  "data": [
    {"smiles": "O=C(O)/C=C/c1nn(Cc2ccc(Cl)cc2Cl)c2cc(C(F)(F)F)ccc12", "note": "[RC-MC-110, trans 3-[1-(2,4-dichlorobenzyl)-6-trifluoromethyl-1H-indazol-3-yl]-acrylic acid]", "values": [
      {"measurement": "Toxicology: liver, lung, pancreas, spleen, heart and kidney (histology)", "setting": "rats; 6 mg/kg, follow-up experiment, findings per animal", "value": "The liver did have isolated, scattered, small necrotic patches, resembling what is often found in subacute hepatic necrosis"},
      {"measurement": "Toxicology: liver, lung, pancreas, spleen, heart and kidney (histology)", "setting": "rats; 12 mg/kg, follow-up experiment, findings per animal", "value": "The liver did have isolated, scattered, small necrotic patches, resembling what is often found in subacute hepatic necrosis; also recorded: The liver contained small, patchy areas of necrosis resembling what is often described for subacute hepatic necrosis; also recorded: The lungs also had multiple, small hemorrhagic areas around the respiratory and terminal bronchioles"},
      {"measurement": "Toxicology: liver, lung, pancreas, spleen, heart and kidney (histology)", "setting": "rats; 25 mg/kg, two animals examined, findings per animal", "value": "liver, lung, pancreas, spleen, heart and kidney all appear within normal limits"},
      {"measurement": "Toxicology: liver, lung, pancreas, spleen, heart and kidney (histology)", "setting": "rats; 200 mg/kg, two animals examined, findings per animal", "value": "liver, lung, pancreas, spleen, heart and kidney all appear within normal limits"},
      {"measurement": "Toxicology: liver, lung, pancreas, spleen, heart and kidney (histology)", "setting": "rats; oral 1.5 mg/kg, two animals, corn oil", "value": "the liver showed a small number of randomly scattered, small necrotic patches, but was otherwise normal"},
      {"measurement": "Toxicology: liver, lung, pancreas, spleen, heart and kidney (histology)", "setting": "rats; oral 1.5 mg/kg, two animals, corn oil, 1.5 mg/kg", "value": "The other animal receiving 1.5 mg/kg appeared normal"},
      {"measurement": "Toxicology: liver, lung, pancreas, spleen, heart and kidney (histology)", "setting": "rats; oral 6 mg/kg, 3 mg/kg, 1 mg/kg and 0.5 mg/kg, two animals from each dose level, corn oil", "value": "liver, lung, pancreas, spleen, heart and kidney all appeared within normal limits"},
      {"measurement": "Binding of HSP90", "setting": "HSP90", "value": "bind heat shock 90 proteins; also recorded: drug specific elution of Hsp90"},
      {"measurement": "Growth of cancer cell lines in vitro", "setting": "[1]", "value": "inhibited by RC-MC-110 in a dose-dependent manner"},
      {"measurement": "Sensitivity of ID8 cell growth, compared with lonidamine", "setting": "[2]", "value": "more sensitive to RC-MC-110 than lonidamine"},
      {"measurement": "Potency on fruitfly reproduction, compared with lonidamine", "setting": "fruitfly; in vivo", "value": "more potent than lonidamine"},
      {"measurement": "Reproduction of fruitfly", "setting": "fruitfly; provided to a fruitfly", "value": "inhibited reproduction"}
    ]},
    {"smiles": "O=C(O)CCc1nn(Cc2ccc(Cl)cc2Cl)c2cc(C(F)(F)F)ccc12", "note": "[GMZ, 3-[1-(2,4-dichlorobenzyl)-6-trifluoromethyl-1H-indazol-3-yl]-propionic acid]", "values": [
      {"measurement": "Toxicity to the kidneys in metanephric culture", "setting": "[3]; [6]", "value": "did not appear to be toxic to the kidneys"},
      {"measurement": "cystic dilation", "setting": "[3]; [6]", "value": "significantly inhibited cystic dilation"},
      {"measurement": "cyst formation in Pkd1+/− kidneys", "setting": "[3]; 1-2 uM", "value": "essentially preventing cyst formation"},
      {"measurement": "cyst reduction in Pkd1−/− kidneys", "setting": "[3]; 5-10 uM, data not shown", "value": "dramatic cyst reduction"},
      {"measurement": "cAMP-mediated cyst formation in heterozygous and null metanephric kidneys", "setting": "[3]; 5 microM", "value": "significantly inhibited cAMP-mediated cyst formation"},
      {"measurement": "cystic index, three Pkd1 genotypes", "setting": "[3]; 5 microM", "value": "dramatic decrease in cystic index"},
      {"measurement": "Persistence of inhibition after washout", "setting": "[3]; 5 microM for 24 hrs, then cAMP only, read on Day 4", "value": "the inhibitory effects appeared to persist in culture"},
      {"measurement": "Size of kidneys in organ culture", "setting": "[3]; compared to untreated counterparts", "value": "somewhat reduced in size"},
      {"measurement": "inhibition at 1 µM", "setting": "[4]; Homo sapiens, 1 microM applied to the apical side, 10 microM forskolin, read-out: inhibition of the forskolin-stimulated transepithelial chloride transport", "value": "> 40", "unit": "%"},
      {"measurement": "forskolin-induced Cl-secretion (short-circuit current)", "setting": "[4]; human ADPKD cells, in the presence of benzamil", "value": "almost completely block"},
      {"measurement": "Concentration needed to inhibit CFTR-mediated chloride channel activity, compared with lonidamine", "setting": "[4]; human cyst epithelial cells (ADPKD cells)", "value": "at much lower concentration; also recorded: effective at lower doses than was Lonidamine itself"},
      {"measurement": "PCNA staining", "setting": "[5]", "value": "overall less staining, and fewer tubule cells staining for PCNA"}
    ]}
  ]
}
